From ChEMBL document CHEMBL2396612 (Bioorg Med Chem Lett, 2013) come the findings set out here.

Test [1] addresses T1, Sterol O-acyltransferase 2 (Homo sapiens, UniProt O75908).
T1 sequence (O75908 whole entry): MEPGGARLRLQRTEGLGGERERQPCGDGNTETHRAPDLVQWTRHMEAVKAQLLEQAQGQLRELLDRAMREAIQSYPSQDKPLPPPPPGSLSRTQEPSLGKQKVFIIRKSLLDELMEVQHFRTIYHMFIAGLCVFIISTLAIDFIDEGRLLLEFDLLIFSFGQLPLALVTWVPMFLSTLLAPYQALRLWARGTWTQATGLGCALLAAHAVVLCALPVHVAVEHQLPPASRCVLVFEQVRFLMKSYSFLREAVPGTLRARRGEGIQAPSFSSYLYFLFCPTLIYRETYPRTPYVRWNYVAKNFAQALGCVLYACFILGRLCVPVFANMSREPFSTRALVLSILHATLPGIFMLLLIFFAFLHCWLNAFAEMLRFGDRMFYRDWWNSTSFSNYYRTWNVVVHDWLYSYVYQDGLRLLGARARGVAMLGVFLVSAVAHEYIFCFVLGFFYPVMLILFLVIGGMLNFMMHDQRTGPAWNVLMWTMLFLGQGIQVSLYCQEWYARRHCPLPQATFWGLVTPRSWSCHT
In words: Inhibition of ACAT2 (unknown origin).

Test [2] concerns the target T2, Sterol O-acyltransferase 1 (Homo sapiens, UniProt P35610).
T2 sequence (P35610 whole entry): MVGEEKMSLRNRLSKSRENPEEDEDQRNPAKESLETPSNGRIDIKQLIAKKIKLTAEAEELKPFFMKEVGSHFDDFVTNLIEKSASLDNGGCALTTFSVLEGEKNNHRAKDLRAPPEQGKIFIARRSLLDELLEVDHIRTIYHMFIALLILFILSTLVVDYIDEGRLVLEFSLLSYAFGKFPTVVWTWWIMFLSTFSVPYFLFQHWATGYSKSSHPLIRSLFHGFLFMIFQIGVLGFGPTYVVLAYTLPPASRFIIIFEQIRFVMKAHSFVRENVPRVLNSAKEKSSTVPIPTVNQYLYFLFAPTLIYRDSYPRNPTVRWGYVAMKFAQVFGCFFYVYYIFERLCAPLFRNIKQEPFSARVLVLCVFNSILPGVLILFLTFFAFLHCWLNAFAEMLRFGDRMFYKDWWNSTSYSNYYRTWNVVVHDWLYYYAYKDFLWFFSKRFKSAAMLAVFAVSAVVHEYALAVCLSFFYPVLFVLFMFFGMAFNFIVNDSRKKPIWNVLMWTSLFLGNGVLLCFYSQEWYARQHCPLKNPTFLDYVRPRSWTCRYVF
In words: Inhibition of ACAT1 (unknown origin).

The species named for test [3] is Homo sapiens. In words: Selectivity index, ratio of IC50 for ACAT1 (unknown origin) to IC50 for ACAT2 (unknown origin).

pIC50: −log10 of the molar value. Where only a bound is given, the exact number is not on record here.

Usually pIC50 stands for −log10 of the IC50, conventionally taken in molar units. A lower pIC50 goes with a high IC50. Regarding `C[C@@]12CO[C@@H](c3ccccc3)O[C@H]1CC[C@@]1(C)[C@H]2C[C@H](OC(=O)c2cccc(C#N)c2)[C@@]2(C)Oc3cc(-c4cccnc4)oc(=O)c3[C@H](O)[C@H]12`, the pIC50 in test [1] is 7.52; in test [2] it was 5.66. Moreover, the Ratio IC50 in test [3] stood at 73.3.
Take `C[C@@]12CO[C@@H](c3ccccc3)O[C@H]1CC[C@@]1(C)[C@H]2C[C@H](OC(=O)c2cccc(Cl)c2)[C@@]2(C)Oc3cc(-c4cccnc4)oc(=O)c3[C@H](O)[C@H]12`: the negative-log IC50 (pIC50) is 7.72 in test [1] and 5.57 in test [2]. Also, in test [3], the Ratio IC50 stood at 142.
In the case of `Cc1ccc([C@@H]2OC[C@@]3(C)[C@@H]4C[C@H](OC(=O)c5ccc(C#N)cc5)[C@@]5(C)Oc6cc(-c7cccnc7)oc(=O)c6[C@H](O)[C@@H]5[C@@]4(C)CC[C@@H]3O2)cc1`, the pIC50 is 8.01 in test [1] and 5.09 in test [2]. For the same molecule, the Ratio IC50 in test [3] was found to be 836.
`C[C@@]12CO[C@@H](c3ccccc3)O[C@H]1CC[C@@]1(C)[C@H]2C[C@H](OC(=O)c2ccccc2Cl)[C@@]2(C)Oc3cc(-c4cccnc4)oc(=O)c3[C@H](O)[C@H]12`: the pIC50 in test [1] was 6.96; in test [2], 5.75. The Ratio IC50 in test [3] is 16.2.
As for `Cc1cccc(C)c1[C@@H]1OC[C@@]2(C)[C@@H]3C[C@H](OC(=O)c4ccc(C#N)cc4)[C@@]4(C)Oc5cc(-c6cccnc6)oc(=O)c5[C@H](O)[C@@H]4[C@@]3(C)CC[C@@H]2O1`, the negative logarithm of the IC50 (pIC50) in test [1] was 8.14; in test [2], less than 4.15. Further, the Ratio IC50 in test [3] is more than 9920.
As for `Cc1ccc([C@@H]2OC[C@@]3(C)[C@@H]4C[C@H](OC(=O)c5ccc(F)cc5)[C@@]5(C)Oc6cc(-c7cccnc7)oc(=O)c6[C@H](O)[C@@H]5[C@@]4(C)CC[C@@H]3O2)cc1`, the pIC50 in test [1] was 7.82; in test [2], 5.26. Moreover, the Ratio IC50 in test [3] came out at 367.
For `C[C@@]12CO[C@@H](c3ccccc3)O[C@H]1CC[C@@]1(C)[C@H]2C[C@H](OC(=O)c2ccc(Br)cc2)[C@@]2(C)Oc3cc(-c4cccnc4)oc(=O)c3[C@H](O)[C@H]12`, in that order: 8.00, 5.16 and 690.
For `CC(=O)OC[C@@]1(C)[C@@H]2C[C@H](OC(=O)c3ccc(C#N)cc3)[C@@]3(C)Oc4cc(-c5cccnc5)oc(=O)c4[C@H](O)[C@@H]3[C@@]2(C)CC[C@@H]1OC(C)=O`, in test [3], the Ratio IC50 came out at 4620.
For `COc1ccccc1[C@@H]1OC[C@@]2(C)[C@@H]3C[C@H](OC(=O)c4ccc(C#N)cc4)[C@@]4(C)Oc5cc(-c6cccnc6)oc(=O)c5[C@H](O)[C@@H]4[C@@]3(C)CC[C@@H]2O1`, the results for the negative-log IC50 (pIC50) in test [1] and in test [2] were 7.43 and less than 4.15, respectively. In addition, the Ratio IC50 in test [3] was more than 1930.
Consider `C[C@@]12CO[C@@H](c3ccccc3)O[C@H]1CC[C@@]1(C)[C@H]2C[C@H](OC(=O)c2cccc(Br)c2)[C@@]2(C)Oc3cc(-c4cccnc4)oc(=O)c3[C@H](O)[C@H]12`, for which the pIC50 was 7.52 in test [1] and 5.37 in test [2]. For the same molecule, the Ratio IC50 in test [3] is 143.
In test [1], `Cc1ccccc1[C@@H]1OC[C@@]2(C)[C@@H]3C[C@H](OC(=O)c4ccc(F)cc4)[C@@]4(C)Oc5cc(-c6cccnc6)oc(=O)c5[C@H](O)[C@@H]4[C@@]3(C)CC[C@@H]2O1` had a negative logarithm of the IC50 (pIC50) of 7.64.
With `COc1cccc(C(=O)O[C@H]2C[C@H]3[C@]4(C)CO[C@@H](c5ccccc5)O[C@H]4CC[C@]3(C)[C@H]3[C@@H](O)c4c(cc(-c5cccnc5)oc4=O)O[C@]23C)c1`, the values for the pIC50 in test [1] and in test [2] were 7.15 and 5.37, respectively. The Ratio IC50 in test [3] stood at 61.4.
`C[C@@]12CO[C@@H](c3ccccc3)O[C@H]1CC[C@@]1(C)[C@H]2C[C@H](OC(=O)c2ccc(C#N)cc2)[C@@]2(C)Oc3cc(-c4cccnc4)oc(=O)c3[C@H](O)[C@H]12`: the results for the negative-log IC50 (pIC50) in test [1] and in test [2] were 8.22 and 5.55, respectively. Further, the Ratio IC50 in test [3] came out at 467.
On to `C[C@@]12CO[C@@H](c3ccccc3)O[C@H]1CC[C@@]1(C)[C@H]2C[C@H](OC(=O)c2ccc(C=O)cc2)[C@@]2(C)Oc3cc(-c4cccnc4)oc(=O)c3[C@H](O)[C@H]12`, for which the pIC50 is 7.52 in test [1] and 5.26 in test [2]. In addition, in test [3], the Ratio IC50 worked out at 183.
For `C[C@@]12CO[C@@H](c3ccccc3F)O[C@H]1CC[C@@]1(C)[C@H]2C[C@H](OC(=O)c2ccc(C#N)cc2)[C@@]2(C)Oc3cc(-c4cccnc4)oc(=O)c3[C@H](O)[C@H]12`, the negative-log IC50 (pIC50) in test [1] is 8.17.
For the molecule `COc1ccc(C(=O)O[C@H]2C[C@H]3[C@]4(C)CO[C@@H](c5ccccc5)O[C@H]4CC[C@]3(C)[C@H]3[C@@H](O)c4c(cc(-c5cccnc5)oc4=O)O[C@]23C)cc1`, the pIC50 in test [1] is 7.85; in test [2], 5.16. The Ratio IC50 in test [3] came out at 493.
As to `Cc1ccc([C@@H]2OC[C@@]3(C)[C@@H]4C[C@H](OC(=O)c5ccc(C#N)cc5)[C@@]5(C)Oc6cc(-c7cccnc7)oc(=O)c6[C@H](O)[C@@H]5[C@@]4(C)CC[C@@H]3O2)c(C)c1`, the pIC50 is 8.18 in test [1] and 5.00 in test [2]. Also, the Ratio IC50 in test [3] worked out at 1520.
As to `Cc1cccc([C@@H]2OC[C@@]3(C)[C@@H]4C[C@H](OC(=O)c5ccc(F)cc5)[C@@]5(C)Oc6cc(-c7cccnc7)oc(=O)c6[C@H](O)[C@@H]5[C@@]4(C)CC[C@@H]3O2)c1`, the pIC50 in test [1] was 7.32; in test [2], 5.02. Moreover, the Ratio IC50 in test [3] was found to be 200.
Regarding `COc1ccccc1C(=O)O[C@H]1C[C@H]2[C@]3(C)CO[C@@H](c4ccccc4)O[C@H]3CC[C@]2(C)[C@H]2[C@@H](O)c3c(cc(-c4cccnc4)oc3=O)O[C@]12C`, the pIC50 was 6.49 in test [1] and 5.47 in test [2]. The Ratio IC50 in test [3] was 10.5.
Consider `CCCCC(=O)O[C@H]1C[C@H]2[C@]3(C)CO[C@@H](c4ccccc4)O[C@H]3CC[C@]2(C)[C@H]2[C@@H](O)c3c(cc(-c4cccnc4)oc3=O)O[C@]12C`, for which the results for the negative logarithm of the IC50 (pIC50) in test [1] and in test [2] were 7.70 and 5.40, respectively. Also, the Ratio IC50 in test [3] is 200.
For `Cc1ccccc1[C@@H]1OC[C@@]2(C)[C@@H]3C[C@H](OC(=O)c4ccc(C#N)cc4)[C@@]4(C)Oc5cc(-c6cccnc6)oc(=O)c5[C@H](O)[C@@H]4[C@@]3(C)CC[C@@H]2O1`, the figures for the pIC50 in test [1] and in test [2] were 7.93 and less than 4.14, respectively. Besides, in test [3], the Ratio IC50 is more than 6160.
In the case of `C[C@@]12CO[C@@H](c3ccccc3)O[C@H]1CC[C@@]1(C)[C@H]2C[C@H](OC(=O)c2ccc(Cl)cc2)[C@@]2(C)Oc3cc(-c4cccnc4)oc(=O)c3[C@H](O)[C@H]12`, the results for the pIC50 in test [1] and in test [2] were 8.05 and 5.24, respectively. For the same molecule, in test [3], the Ratio IC50 turned out to be 644.
With `C[C@@]12CO[C@@H](c3ccccc3)O[C@H]1CC[C@@]1(C)[C@H]2C[C@H](OC(=O)c2ccc(F)cc2)[C@@]2(C)Oc3cc(-c4cccnc4)oc(=O)c3[C@H](O)[C@H]12`, the pIC50 in test [1] is 8.15; in test [2], 5.21. Also, the Ratio IC50 in test [3] was 886.
On to `Cc1cccc([C@@H]2OC[C@@]3(C)[C@@H]4C[C@H](OC(=O)c5ccc(C#N)cc5)[C@@]5(C)Oc6cc(-c7cccnc7)oc(=O)c6[C@H](O)[C@@H]5[C@@]4(C)CC[C@@H]3O2)c1`, for which the values for the negative-log IC50 (pIC50) in test [1] and in test [2] were 8.11 and 5.43, respectively. Further, in test [3], the Ratio IC50 stood at 478.
Turning to `C[C@@]12CO[C@@H](c3ccccc3)O[C@H]1CC[C@@]1(C)[C@H]2C[C@H](OC(=O)c2cccc(F)c2)[C@@]2(C)Oc3cc(-c4cccnc4)oc(=O)c3[C@H](O)[C@H]12`, the negative-log IC50 (pIC50) is 7.89 in test [1] and 5.52 in test [2]. The Ratio IC50 in test [3] worked out at 231.
Turning to `C[C@@]12CO[C@@H](c3ccccc3)O[C@H]1CC[C@@]1(C)[C@H]2C[C@H](OC(=O)c2ccccc2F)[C@@]2(C)Oc3cc(-c4cccnc4)oc(=O)c3[C@H](O)[C@H]12`, the pIC50 in test [1] was 7.30; in test [2], 5.57. Also, in test [3], the Ratio IC50 is 54.
Consider `C[C@@]12CO[C@@H](c3ccccc3)O[C@H]1CC[C@@]1(C)[C@H]2C[C@H](OC(=O)c2ccc([N+](=O)[O-])cc2)[C@@]2(C)Oc3cc(-c4cccnc4)oc(=O)c3[C@H](O)[C@H]12`, for which the negative logarithm of the IC50 (pIC50) in test [1] was 7.22; in test [2], 4.86. Also, the Ratio IC50 in test [3] is 232.
Molecule `C[C@@]12CO[C@@H](c3ccccc3)O[C@H]1CC[C@@]1(C)[C@H]2C[C@H](OC(=O)c2ccccc2C#N)[C@@]2(C)Oc3cc(-c4cccnc4)oc(=O)c3[C@H](O)[C@H]12` had a negative-log IC50 (pIC50) in test [1] of 6.49.
